Read-outs that look alike come from different tables or passages of the source. Each block holds one molecule with its values, some of them ahead of it.
Assays:
BRD2 BD2 [1] = molecular target: T1, BRD2 BD2 (Homo sapiens (Human), UniProt P25440); experiment: FP competitive binding assay (BRD-1F probe); conditions: for IC50: BRD-1F probe 5 nM, protein 200 nM; for Ki: BRD-1F probe, calculated from IC50
Protocol: (§1) The FAM labeled fluorescent probe (BRD-1F) was synthesized based on a known small-molecule BET bromodomain inhibitor. […] Final BRD-1F concentration was 5 nM. Plates were incubated at room temperature for 1-2 hours with gentle shaking to assure equilibrium.
(§2) Final probe concentration is 5 nM in all assays. […] FP values were measured as described above.

MOLM-13 = experiment: Cell growth inhibition, CellTiter-Glo, acute leukemia cell line; format: cell-based; conditions: Homo sapiens, MOLM-13, 96 h, 4 days
Protocol: (§3) Cell growth inhibitory activity of representative BET bromodomain inhibitors was determined using CellTiter-Glo® Luminescent Cell Viability Assay. For leukemia cell lines MV-4-11 (ATCC, Manassas, Va.) and MOLM-13 (DSMZ, Germany), cells were seeded in 96-well white opaque cell culture plates at a density of 10,000 cells/well with serially diluted compounds and incubated at 37° C. in an atmosphere of 95% air and 5% CO2 for 4 days. Cell viability was determined using the CellTiter-Glo® Luminescent Cell Viability Assay Kit (Promega, Madison, Wis.) according to the manufacture's instruction. Briefly, a volume of CellTiter-Glo® Reagent equal to the volume of cell culture medium was added to each well, and then the plates were incubated at room temperature for 10-20 minutes. The luminescent signal was measured using a Tecan Infinite M1000 multimode microplate reader (Tecan, Morrisville, N.C.). The half maximal inhibitory concentration (IC50) was calculated using the GraphPad Prism 5 software (GraphPad Software, La Jolla, Calif.).

MV-4-11 = experiment: as above; format: cell-based; conditions: Homo sapiens, MV4-11, 96 h, 4 days
Protocol: as §3

[2] = system: leukemia MOLM-13 cell line; experiment: 4-day cell viability assay, CellTiter-Glo; format: cell-based; conditions: Homo sapiens, MOLM-13, 96 h; 4 days; read-out: Cell Growth Inhibition (IC50 (nM)) MOLM-13 Cell Line (CellTiter-Glo assay)
Protocol: (§4) The effect of representative BET bromodomain inhibitors on cell viability was determined in a 4-day proliferation assay. Cells were maintained in the appropriate culture medium with 10% FBS at 37° C. and an atmosphere of 5% CO2. All the cell lines were used within three months of thawing fresh vials.
(§5) Cells were seeded in 96-well flat bottom (Corning COSTAR, Corning, N.Y., cat#3595) or white opaque cell culture plates (BD Falcon, cat#353296) at a density of 3,000-10,000 cells/well in 75 μl of culture medium. Compounds were serially diluted in the appropriate medium, and 75 μl of the diluted compounds were added to the appropriate wells of the cell plate. After the addition of compounds, the cells were incubated at 37° C. in an atmosphere of 5% CO2 for 4 days. Cell viability was determined using the CellTiter-Glo® Luminescent Cell Viability Assay Kit (Promega, Madison, Wis.) for MOLM-13 cells and WST (2-(2-methoxy-4-nitrophenyl)-3-(4-nitrophenyl)-5-(2,4-disulfophenyl)-2H-tetrazolium, monosodium salt) Cell Counting-8 Kit (Dojindo Molecular Technologies, Inc., Rockville, Md.) for MDA-MB-436 cells according to the manufacturers' instructions.
For the CellTiter-Glo assay, 100 μl of CellTiter-Glo® Reagent was added to each well, and then the plates were incubated at room temperature for 10-20 minutes. The luminescent signal was measured using a Tecan Infinite M1000 multimode microplate reader (Tecan, Morrisville, N.C.). The readings were normalized to the DMSO-treated cells and the IC50 was calculated by nonlinear regression (four parameters sigmoid fitted with variable slope, least squares fit, and no constraint) analysis using the GraphPad Prism 5 software.

BRD2 BD1 = BRD2 BD1 (Homo sapiens (Human), UniProt P25440); experiment: FP competitive binding assay using Cpd. No. 350 as the probe
Protocol: (§6) Fluorescence Polarization (FP) competitive binding studies (see above) were carried out using the FAM labeled fluorescent probe Cpd. No. 350 to determine binding affinities of representative compounds to both BD1 and BD2 of BRD2, BRD3, and BRD4 proteins. Equilibrium dissociation constants (Id) values of Cpd. No. 350 to these six proteins were determined from protein saturation experiments by monitoring the total fluorescence polarization of mixtures composed with the fluorescent probe at a fixed concentration and proteins with increasing concentrations up to full saturation. Serial dilutions of testing protein were mixed with Cpd. No. 350 to a final volume of 200 μl in the assay buffer. […] Plates were incubated at room temperature for 30 minutes with gentle shaking to assure equilibrium. […] Kd values of Cpd.
(§7) The IC50 and Ki values of compounds were determined in a competitive binding experiment as described above. […] FP values were measured as described above. IC50 values were determined by nonlinear regression fitting of the competition curves.

BRD2 BD2 [3] = molecular target: T1, BRD2 BD2; experiment: as above
MV4;11 = experiment: Cell growth inhibition in leukemia cell line; format: cell-based; conditions: Homo sapiens, MV4-11, cell growth inhibition
AML-2 = experiment: Cell growth inhibition in leukemia cell line; format: cell-based
Protocol: as §4, §5

K562 = experiment: Cell growth inhibition in leukemia cell line; format: cell-based; conditions: Homo sapiens
BRD3 BD1 = BRD3 BD1 (Homo sapiens (Human), UniProt Q15059); experiment: FP competitive binding assay using Cpd. No. 350 as the probe
Protocol: as §6, §7

BRD3 BD2 = BRD3 BD2 (Homo sapiens (Human), UniProt Q15059); experiment: as above
Protocol: as §6, §7

BRD4 BD1 = BRD4 BD1 (Homo sapiens (Human), UniProt O60885); experiment: as above
BRD4 BD2 [4] = molecular target: T2, BRD4 BD2 (Homo sapiens (Human), UniProt O60885); experiment: as above
Protocol: as §6, §7

BRD4 BD2 [5] = molecular target: T2, BRD4 BD2; experiment: FP competitive binding assay (BRD-1F probe); conditions: for IC50: BRD-1F probe 5 nM, protein 200 nM; for Ki: BRD-1F probe, calculated from IC50
Protocol: as §1, §2

prostate VCaP cell line = experiment: Cell growth inhibition, Cell TiterGLO, 4 days; format: cell-based; conditions: treated 4 days, read-out: VCaP cells (IC50 (nM))
[6] = read-out: BRD2 BD1 Ki, FP, Cpd. No. 350 probe […]
[7] = read-out: BRD2 BD2 Ki, FP, Cpd. No. 350 probe […]
[8] = read-out: BRD3 BD1 Ki, FP, Cpd. No. 350 probe […]
[9] = read-out: BRD3 BD2 Ki, FP, Cpd. No. 350 probe […]
[10] = read-out: BRD4 BD1 Ki, FP, Cpd. No. 350 probe […]
[11] = read-out: BRD4 BD2 Ki, FP, Cpd. No. 350 probe […]

Sequence of BRD3 BD1 (Q15059 34-140): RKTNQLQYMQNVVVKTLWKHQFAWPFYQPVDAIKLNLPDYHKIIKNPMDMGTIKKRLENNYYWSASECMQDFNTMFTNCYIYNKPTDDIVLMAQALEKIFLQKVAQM
T1 sequence (P25440 344-453): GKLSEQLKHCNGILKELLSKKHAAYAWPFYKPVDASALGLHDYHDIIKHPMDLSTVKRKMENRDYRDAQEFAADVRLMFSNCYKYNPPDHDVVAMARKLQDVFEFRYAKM
Sequence of BRD3 BD2 (Q15059 306-415): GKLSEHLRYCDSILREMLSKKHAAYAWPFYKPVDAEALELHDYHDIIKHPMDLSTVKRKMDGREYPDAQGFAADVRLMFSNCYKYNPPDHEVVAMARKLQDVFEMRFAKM
Sequence of BRD2 BD1 (P25440 74-180): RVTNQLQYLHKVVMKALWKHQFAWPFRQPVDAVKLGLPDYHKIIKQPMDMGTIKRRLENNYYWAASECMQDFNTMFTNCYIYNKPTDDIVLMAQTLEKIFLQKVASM

Compound: COc1cc2c(cc1-c1c(C)noc1C)[nH]c1ccnc(-c3c(C)n[nH]c3C)c12
- IC50 (BRD2 BD2 [1]): 92.8 ± 30.8 nM
- Ki (BRD2 BD2 [1]): < 10 nM
- IC50 (MOLM-13): < 500 nM
- IC50 (MV-4-11): < 100 nM
- IC50 [2]: 311 ± 12 nM
- Ki (BRD2 BD1; [6]): 48.3 ± 1.3 nM
- Ki (BRD2 BD2 [3]; [7]): 57.7 ± 8.1 nM

- IC50 [2]: 280 ± 35 nM
- IC50 (MV4;11): 83 ± 41 nM
- IC50 (AML-2): 173 ± 89 nM
- IC50 (K562): > 2000 nM
- Ki (BRD2 BD1): 58.4 ± 1 nM
- Ki (BRD2 BD2 [3]): 92.1 ± 3.3 nM
- Ki (BRD3 BD1): 38.2 ± 1 nM
- Ki (BRD3 BD2): 50.9 ± 5.8 nM
- Ki (BRD4 BD1): 116 ± 5 nM
- Ki (BRD4 BD2 [4]): 134 ± 42 nM
Compound: COc1cc2c(cc1-c1c(C)noc1C)[nH]c1ccnc(-c3c(C4CC4)n[nH]c3C)c12 [Cpd. No. 24, 4-(1-(3-cyclopropyl-5-methyl-1H-pyrazol-4-yl)-8-methoxy-5H-pyrido[4,3-b]indol-7-yl)-3,5-dimethylisoxazole]

Compound: COc1cc2c(cc1-c1c(C)noc1C)[nH]c1ccnc(-c3cn[nH]c3)c12
- IC50 (BRD2 BD2 [1]): 286 ± 125 nM
- Ki (BRD2 BD2 [1]): 42.3 ± 32 nM
- IC50 (BRD4 BD2 [5]): 608 ± 244 nM
- Ki (BRD4 BD2 [5]): 114 ± 87 nM
- IC50 [2]: 1040 ± 158 nM
- IC50 (MV4;11): 1070 ± 195 nM
- IC50 (AML-2): 217 ± 61 nM
- IC50 (K562): > 2000 nM
- Ki (BRD2 BD1; [6]): 138 ± 8 nM
- Ki (BRD2 BD2 [3]; [7]): 89.7 ± 6.4 nM
- Ki (BRD3 BD1; [8]): 151 ± 20 nM
- Ki (BRD3 BD2; [9]): 48.7 ± 3.3 nM
- Ki (BRD4 BD1; [10]): 247 ± 29 nM
- Ki (BRD4 BD2 [4]; [11]): 201 ± 5 nM

Compound: COc1cc2c(cc1-c1c(C)noc1C)[nH]c1ccncc12 [RX-7]
- IC50 (BRD2 BD2 [1]): 1350 ± 212 nM
- Ki (BRD2 BD2 [1]): 366 ± 82 nM
- IC50 (BRD4 BD2 [5]): 2900 nM
- Ki (BRD4 BD2 [5]): 850 nM
- Ki (BRD2 BD1; [6]): 650 ± 125 nM
- Ki (BRD2 BD2 [3]; [7]): 498 ± 11 nM
- Ki (BRD3 BD1; [8]): 730 ± 146 nM
- Ki (BRD3 BD2; [9]): 241 ± 6 nM
- Ki (BRD4 BD1; [10]): 1640 ± 71 nM
- Ki (BRD4 BD2 [4]; [11]): 824 ± 25 nM

- IC50 (prostate VCaP cell line; Homo sapiens, VCaP, 96 h): 20 nM
Compound: COc1cc2c(cc1-c1c(C)noc1C)[nH]c1nc(C)nc(-c3ccnc4ccc(Cl)cc34)c12 [Cpd. No. 90]

- IC50 (BRD2 BD2 [1]): 255 ± 114 nM
- Ki (BRD2 BD2 [1]): 34.9 ± 21.2 nM
- IC50 (BRD4 BD2 [5]): 514 nM
- Ki (BRD4 BD2 [5]): 83.4 nM
Compound: COc1cc2c(cc1-c1c(C)noc1C)[nH]c1ccnc(-c3ccccc3)c12

Compound: Cc1sc2c(c1C)C(c1ccc(Cl)cc1)=N[C@@H](CC(=O)OC(C)(C)C)c1nnc(C)n1-2 [JQ1, reference compound]
- IC50 (prostate VCaP cell line): 48 nM

- IC50 (BRD2 BD2 [1]): 349 nM
- Ki (BRD2 BD2 [1]): 57.4 nM
- IC50 (BRD4 BD2 [5]): 873 nM
- Ki (BRD4 BD2 [5]): 232 nM
Compound: COc1cc2c(cc1-c1c(C)noc1C)[nH]c1ccnc(-c3cccnc3)c12

- IC50 (prostate VCaP cell line; Homo sapiens, VCaP, 96 h): 500 nM
Compound: CCNC(=O)C[C@@H]1N=C(c2ccc(Cl)cc2)c2cc(OC)ccc2-n2c(C)nnc21 [I-BET762, reference compound]

- IC50 (MOLM-13): < 500 nM
- IC50 (MV-4-11): < 100 nM
Compound: COc1cc2c(cc1-c1c(C)noc1C)[nH]c1ncnc(-c3c(C)n[nH]c3C)c12 [Cpd. No. 38]

Compound: COc1cc2c(cc1-c1c(C)noc1C)[nH]c1ccncc12 [Cpd. No. 1, 4-(8-methoxy-5H-pyrido[4,3-b]indol-7-yl)-3,5-dimethylisoxazole]
- IC50 [2]: 550 ± 303 nM
- IC50 (MV4;11): 178 ± 114 nM
- IC50 (AML-2): 148 ± 64 nM
- IC50 (K562): > 2000 nM
- Ki (BRD2 BD1): 31.6 ± 8.2 nM
- Ki (BRD2 BD2 [3]): 34.5 ± 2.1 nM
- Ki (BRD3 BD1): 14.7 ± 1 nM
- Ki (BRD3 BD2): 14.3 ± 0.5 nM
- Ki (BRD4 BD1): 47.8 ± 1 nM
- Ki (BRD4 BD2 [4]): 70.1 ± 2 nM

Compound: COc1cc2c(cc1-c1c(C)noc1C)[nH]c1nc(C)nc(-c3ccnc4ccccc34)c12 [Cpd. No. 73]
- IC50 (prostate VCaP cell line; Homo sapiens, VCaP, 96 h): 156 nM
- Ki (BRD2 BD1; [6]): 15.5 nM
- Ki (BRD2 BD2 [3]; [7]): 8.7 nM
- Ki (BRD3 BD1; [8]): 10.2 nM
- Ki (BRD3 BD2; [9]): 2.6 nM
- Ki (BRD4 BD1; [10]): 35.3 nM
- Ki (BRD4 BD2 [4]; [11]): 7.8 nM

- IC50 (prostate VCaP cell line; Homo sapiens, VCaP, 96 h): 25 nM
Compound: COc1cc2c(cc1-c1c(C)noc1C)[nH]c1nc(C)nc(-c3cc(NCCN(C)C)nc4ccccc34)c12 [Cpd. No. 101]

Compound: COc1cc2c(cc1-c1c(C)noc1C)ncc1[nH]c(=O)n([C@H](C)c3ccccn3)c12 [I-BET151, reference compound]
- IC50 (prostate VCaP cell line; Homo sapiens, VCaP, 96 h): 862 nM

- IC50 (BRD2 BD2 [1]): 3200 nM
- Ki (BRD2 BD2 [1]): 1200 nM
- IC50 (BRD4 BD2 [5]): 3670 nM
- Ki (BRD4 BD2 [5]): 775 nM
Compound: COc1cc2c(cc1-c1c(C)n[nH]c1C)[nH]c1ccnc(-c3c(C)n[nH]c3C)c12 [Cpd. No. 34, 1,7-bis(3,5-dimethyl-1H-pyrazol-4-yl)-8-methoxy-5H-pyrido[4,3-b]indole]
